Each structure is given as a SMILES string.

The values that follow come from a melting point compilation (Tetko et al.; mined from patent text by program, amines drawn as free bases though some values may be those of a salt).

For `COC(=O)Nc1cccc(OCC(O)CN(Cc2ccccc2)C(C)(C)C)c1O` (stereo not given), the melting point was in the range of 130 to 133 °C.
Next, `C[C@H](NC(=O)COCCNC(=O)c1ccc(Cl)cc1)C(=O)N[C@H](CCC(=O)OCc1ccccc1)C(N)=O`: 141 to 143 °C; `CC(C)n1c(C=O)c(-c2ccc(F)cc2)c2cccnc21`: 95 to 101 °C; `O=C(O)CC(Cc1ccccc1[N+](=O)[O-])C(=O)O` (stereo not given): 135 to 138 °C.
With `CS(=O)(=O)c1ccc(-c2cnn(CC(F)(F)F)c(=O)c2SCc2ccccc2)cc1` the figure was 108 to 111 °C; with `Cc1ccccc1C(=O)CN1C(=O)C(NC(=O)c2cc3ccccc3[nH]2)N=C(C2CCCCC2)c2cccc(C)c21` (racemic), 127 to 145 °C.
On to `CC(=O)Nc1ccc(S(=O)(=O)NCC2CCN(C[C@H]3COc4ccc5[nH]ccc5c4O3)CC2)cc1`, for which the melting point is 133 to 134 °C.
With `Cc1cc2cccc(OCCNCc3cccc(C4=CCCC4)c3)c2o1` the figure was 133 °C; with `CC(C)c1cccc(-c2ccc(F)cc2)c1OCCO`, 77 to 78 °C.
With `Cc1ccc(-c2cncn2-c2ccc(S(C)(=O)=O)cc2)cc1` the figure was 156 °C; with `CCCCCCS(=O)C1CC(=O)N1CC(=O)CCc1ccccc1` (stereo not given), 154 to 155 °C; with `Cc1cccc(C(=O)NC(C)C)c1N(C(=O)c1cc(C(F)(F)F)[nH]n1)c1ncccc1Cl`, 194 to 195 °C.
With `CC(=O)C1CCC2C3CCC4=CC(=O)CCC4(C)C3C(Cl)CC12C` (stereo not given) the figure was 185 to 188 °C; with `N#Cc1ccc(C(=O)N2CCN(c3ccncc3)CC2)cc1`, 164 to 165 °C.
`C=CCOc1ccc(C(=O)C=Cc2cccnc2)c(O)c1` displayed a melting point of 115 to 117 °C.
With `CC1=C(C(=O)OCC2COc3ccccc3O2)C(c2c(F)c(F)c(F)c(F)c2F)C2=C(CNCC2=O)N1` (stereo not given) the figure was 167 to 170 °C; with `Cn1c(C=O)cnc1[N+](=O)[O-]`, 114 to 115 °C; with `CC(C)CCC(=O)N[C@H]1CC[C@H](CCN2CCN(c3nccc4c3CCO4)CC2)CC1`, 182 °C.
The compound `COC(=O)Cc1ccc(C(O)(C#N)c2ccccc2)n1C` (stereo not given) registered a melting point of 137 to 138 °C.
With `O=C(c1cc([N+](=O)[O-])cc(C(F)(F)F)c1)c1cc([N+](=O)[O-])cc(C(F)(F)F)c1` the figure was 181 °C; with `CC12CCC3C(CCC4=CC(=O)CCC43C=O)C1CCC2O` (stereo not given), 125 to 127 °C; with `O=[N+]([O-])c1ccc(-c2cc3c(Cl)ncnc3[nH]2)cc1`, greater than 280 °C.
With `FC(F)(F)c1ccn(-c2cccnc2)n1` the figure was 59 to 61 °C; with `c1cc(-c2nc(-c3cnccn3)n[nH]2)ccn1`, 251 to 252 °C.
As for `CC1CCCN1CCCN1C(=C(C#N)C#N)N(CCCN2CCCC2C)c2ccccc21` (stereo not given), the melting point lay in the range of 83 to 85 °C.
With `COCc1ncnc(O)c1C` the figure was 139 to 140 °C.
Next, `CCCCCCCCCCCCNC(=O)COc1ccc(O)cc1[N+](=O)[O-]`: 150 to 151 °C; `Nc1c(Cl)cc(I)cc1Cl`: 100 to 102 °C; `O=c1[nH]nc2n1-c1ccc(Cl)nc1C(c1ccccc1)=NC2`: 222 to 224 °C.
With `N#CC1c2ccc(Br)cc2CCC1c1ccc(F)cc1` (stereo not given) the figure was 146 °C.
Compound `O=C(O)c1ncn2c1[C@@H]1CCN1C(=O)c1cc(F)ccc1-2` returned a melting point of 159 to 160 °C.
Next, `NC1N=C(Cl)C=C(Cl)N1c1c([N+](=O)[O-])cc(C(F)(F)F)c(Cl)c1[N+](=O)[O-]` (stereo not given): 199 to 200 °C; `COc1ccc(CN2C(=O)C(c3cc(C#N)c(O)cc3O)c3ccccc32)cc1` (stereo not given): 162 to 163 °C; `O=C(CN1CCC(Cc2ccccc2)CC1)Nc1ccc2[nH]ncc2c1`: 170 to 174 °C.
With `CC1CCc2c(Cl)c(Cl)cc3c(=O)c(C(=O)O)cn1c23` (stereo not given) the figure was 269 to 271 °C.
